Results taken from patent US8586755B2, “Substituted nicotinamides as KCNQ2/3 modulators” (Grünenthal GmbH, priority 2009, dated 2013).

Legend:
Sprague-Dawley rats = assay: Low-intensity tail flick in the rat; type: in vivo; details: po
From the text: Low-Intensity Tail Flick in the Rat
The antinociceptive effectiveness of the test substance towards an acute, noxious thermal stimulus was studied in the focal ray (tail flick) test in the rat according to the method of D'Amour and Smith (J. Pharm. Exp. Ther. 72, 74 79 (1941)). Male Sprague-Dawley rats (breeder: Janvier, Le Genest St. Isle, France) weighing from 200 to 250 g were used for this purpose. The animals were accommodated individually in special test compartments and the base of the tail was exposed to the focused ray of an analgesia meter (model 2011, Rhema Labortechnik, Hofheim, Germany). 10 animals were used per group. Before a substance according to the invention was administered, the withdrawal latency (time from switching on of the focal ray to the sudden withdrawal of the tail) was determined twice at an interval of five minutes and the mean value was defined as the control latency time. The intensity of the focal ray was chosen so that the control latency time was 7 to 9 seconds. Measurement of the withdrawal latency was then repeated 10, 20, 30 and 60 minutes after peroral administration of substance. The antinociceptive action of the test substance was determined as the increase in the withdrawal latency time according to the following formula: MPE[%]=[(T1−T0)/(T2−T0)]×100 where: T0=control latency time before administration of substance, T1=latency time after administration of substance, T2=maximum exposure time to the focal ray (30 seconds), MPE=maximum possible effect.
Variance analysis (repeated measures ANOVA) was used to test for statistically significant differences between the substance group and the vehicle group. The level of significance was set at ≦0.05.

KCNQ2/3 channels = target: T1, KCNQ2/3 channels (Homo sapiens, UniProt O43525+O43526); assay: Fluorescence assay using a voltage sensitive dye (fluorimetry); type: cell-based; details: CHO-K1 cells expressing KCNQ2/3 channels; for EC50: agonistic activity; for Emax / Fluorimetry % efficacy (retigabine 50 μM = 100%): retigabine 50 μM = 100%; for Emax: read-out: Fluorimetry % efficacy (retigabine 50 μM = 100%)
T1 construct: expressed in transfected cells
How it was run: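 CHO-K1 cells expressing human KCNQ2/3, loaded 45 min with red membrane-potential dye in ES buffer pH 7.4 (1 mM KCl), compound 30 min at room temperature. Fluorescence (525/560 nm) read before (F1) and at peak after KCl to 92 mM final (F2); agonism from F2/F1 change, EC50 fitted.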

[1] = MPE, read-out: Low-intensity tail flick rat p.o. % effect (dose [mg/kg])

O=C(NCc1ccc(F)cc1)c1cccnc1SCCCc1ccc(F)cc1 [compound 65, N-[(4-Fluorophenyl)-methyl]-2-[3-(4-fluorophenyl)-propylsulfanyl]-pyridine-3-carboxylic acid amide]
inhibition in vivo at 10 mg/kg (Sprague-Dawley rats; [1]): 49% | EC50 (KCNQ2/3 channels): 40 nM | Emax (KCNQ2/3 channels): 97%

O=C(NCc1ccc(F)cc1)c1cccnc1SCCC(F)(F)c1ccc(F)cc1 [compound 124, 2-[[3,3-Difluoro-3-(4-fluorophenyl)-propyl]sulfanyl]-N-[(4-fluorophenyl)-methyl]-pyridine-3-carboxylic acid amide]
ED50 (Sprague-Dawley rats): 3.5 mg/kg | EC50 (KCNQ2/3 channels): 17 nM | Emax (KCNQ2/3 channels): 114%

O=C(NCC1CC2CCC1C2)c1cccnc1SCCCc1cc(F)c(F)c(F)c1 (stereo not drawn) [compound 68, N-(5-Bicyclo[2.2.1]heptanyl-methyl)-2-[3-(3,4,5-trifluoro-phenyl)-propylsulfanyl]-pyridine-3-carboxylic acid amide]
inhibition in vivo at 10 mg/kg (Sprague-Dawley rats; [1]): 32% | EC50 (KCNQ2/3 channels): 65 nM | Emax (KCNQ2/3 channels): 280%

CC(CCc1cccc(C(F)(F)F)c1)Sc1ncccc1C(=O)NCc1cccs1 (stereo not drawn) [compound 107, 2-[[1-Methyl-3-[3-(trifluoromethyl)phenyl]-propyl]sulfanyl]-N-(thiophen-2-yl-methyl)-pyridine-3-carboxylic acid amide]
inhibition in vivo at 21.5 mg/kg (Sprague-Dawley rats; dose 21.5 mg/kg, MPE, read-out: Low-intensity tail flick rat p.o. % effect (dose [mg/kg])): 20% | EC50 (KCNQ2/3 channels): 57 nM | Emax (KCNQ2/3 channels): 119%

CC(C)CCNC(=O)c1cccnc1SCCCc1ccc(F)cc1 [compound 133, 2-[3-(4-Fluorophenyl)-propylsulfanyl]-N-(3-methyl-butyl)-pyridine-3-carboxylic acid amide]
inhibition in vivo at 10 mg/kg (Sprague-Dawley rats; [1]): 61% | EC50 (KCNQ2/3 channels): 106 nM | Emax (KCNQ2/3 channels): 185%

CC(C)(C)CCNC(=O)c1cccnc1SCCC(F)(F)c1ccc(F)cc1 [compound 116, 2-[[3,3-Difluoro-3-(4-fluorophenyl)-propyl]sulfanyl]-N-(3,3-dimethyl-butyl)-pyridine-3-carboxylic acid amide]
ED50 (Sprague-Dawley rats): 5.4 mg/kg | EC50 (KCNQ2/3 channels): 62 nM | Emax (KCNQ2/3 channels): 186%

O=C(NCc1cccs1)c1cccnc1SCCCC1CCCCC1 [compound 2, 2-(3-Cyclohexyl-propylsulfanyl)-N-(thiophen-2-yl-methyl)-pyridine-3-carboxylic acid amide]
EC50 (KCNQ2/3 channels): 1350 nM | Emax (KCNQ2/3 channels): 97%

O=C(NCc1nnco1)c1cccnc1SCCCc1ccc(F)cc1 [compound 158, 2-[3-(4-Fluorophenyl)-propylsulfanyl]-N-([1,3,4]oxadiazol-2-yl-methyl)-pyridine-3-carboxylic acid amide]
Emax (KCNQ2/3 channels): 30%

O=C(NCc1cccc(OC(F)(F)F)c1)c1cccnc1SCCCc1ccc(F)cc1 [compound 87, 2-[3-(4-Fluorophenyl)-propylsulfanyl]-N-[[3-(trifluoromethyloxy)-phenyl]-methyl]-pyridine-3-carboxylic acid amide]
EC50 (KCNQ2/3 channels): 101 nM | Emax (KCNQ2/3 channels): 116%

COc1ccccc1CCCNC(=O)c1cccnc1SCCCc1ccc(F)cc1 [compound 130, 2-[3-(4-Fluorophenyl)-propylsulfanyl]-N-[3-(2-methoxyphenyl)-propyl]-pyridine-3-carboxylic acid amide]
EC50 (KCNQ2/3 channels): 465 nM | Emax (KCNQ2/3 channels): 164%

O=C(NCc1ccc(O)cc1)c1cccnc1SCCCc1ccc(F)cc1 [compound 88, 2-[3-(4-Fluorophenyl)-propylsulfanyl]-N-[(4-hydroxyphenyl)-methyl]-pyridine-3-carboxylic acid amide]
EC50 (KCNQ2/3 channels): 3760 nM | Emax (KCNQ2/3 channels): 53%

CCCNC(=O)c1cccnc1SCCCc1ccc(F)cc1 [compound 96, 2-[3-(4-Fluorophenyl)-propylsulfanyl]-N-propyl-pyridine-3-carboxylic acid amide]
EC50 (KCNQ2/3 channels): 660 nM | Emax (KCNQ2/3 channels): 194%

O=C(NCc1ccc2c(c1)OCO2)c1cccnc1SCCCc1ccc(F)cc1 [compound 121, N-(1,3-Benzodioxol-5-yl-methyl)-2-[3-(4-fluorophenyl)-propylsulfanyl]-pyridine-3-carboxylic acid amide]
EC50 (KCNQ2/3 channels): 256 nM | Emax (KCNQ2/3 channels): 99%

O=C(NCC1CCCOC1)c1cccnc1SCCC(F)(F)c1ccc(F)cc1 (stereo not drawn) [compound 188, 2-[[3,3-Difluoro-3-(4-fluorophenyl)-propyl]sulfanyl]-N-(tetrahydro-pyran-3-yl-methyl)-pyridine-3-carboxylic acid amide]
EC50 (KCNQ2/3 channels): 315 nM | Emax (KCNQ2/3 channels): 210%

COC(C)CNC(=O)c1cccnc1SCCC(F)(F)c1ccc(F)cc1 (stereo not drawn) [compound 194, 2-[[3,3-Difluoro-3-(4-fluorophenyl)-propyl]sulfanyl]-N-(2-methoxy-propyl)-pyridine-3-carboxylic acid amide]
EC50 (KCNQ2/3 channels): 232 nM | Emax (KCNQ2/3 channels): 203%

CC(C)CCNC(=O)c1cccnc1SC(C)CCc1ccc(F)cc1 (stereo not drawn) [compound 177, 2-[[3-(4-Fluorophenyl)-1-methyl-propyl]sulfanyl]-N-(3-methyl-butyl)-pyridine-3-carboxylic acid amide]
EC50 (KCNQ2/3 channels): 76 nM | Emax (KCNQ2/3 channels): 192%

CCCCCCNC(=O)c1cccnc1SCCC(F)(F)c1ccc(F)cc1 [compound 186, 2-[[3,3-Difluoro-3-(4-fluorophenyl)-propyl]sulfanyl]-N-hexyl-pyridine-3-carboxylic acid amide]
EC50 (KCNQ2/3 channels): 236 nM | Emax (KCNQ2/3 channels): 191%

O=C(NCc1cccs1)c1cccnc1SCCC(F)(F)c1ccc(F)cc1 [compound 118, 2-[[3,3-Difluoro-3-(4-fluorophenyl)-propyl]sulfanyl]-N-(thiophen-2-yl-methyl)-pyridine-3-carboxylic acid amide]
EC50 (KCNQ2/3 channels): 37 nM | Emax (KCNQ2/3 channels): 159%

CCC(CNC(=O)c1cccnc1SCCC(F)(F)c1ccc(F)cc1)OC (stereo not drawn) [compound 195, 2-[[3,3-Difluoro-3-(4-fluorophenyl)-propyl]sulfanyl]-N-(2-methoxy-butyl)-pyridine-3-carboxylic acid amide]
EC50 (KCNQ2/3 channels): 48 nM | Emax (KCNQ2/3 channels): 122%

O=C(NCc1cccs1)c1cccnc1SCCCc1ccccc1 [compound 1]
EC50 (KCNQ2/3 channels): 170 nM | Fluorimetry % efficacy (retigabine 50 μM = 100%) (KCNQ2/3 channels): 132%

Cc1cc(CCCSc2ncccc2C(=O)NCc2cccs2)cc(C(F)(F)F)c1 [compound 109, 2-[3-[3-Methyl-5-(trifluoromethyl)-phenyl]-propylsulfanyl]-N-(thiophen-2-yl-methyl)-pyridine-3-carboxylic acid amide]
EC50 (KCNQ2/3 channels): 180 nM | Emax (KCNQ2/3 channels): 129%

CC(C)CCCSc1ncccc1C(=O)NCC1CC2CCC1C2 (stereo not drawn) [compound 28, N-(5-Bicyclo[2.2.1]heptanyl-methyl)-2-(4-methyl-pentylsulfanyl)-pyridine-3-carboxylic acid amide]
EC50 (KCNQ2/3 channels): 1570 nM | Emax (KCNQ2/3 channels): 192%

COc1ccccc1CNC(=O)c1cccnc1SCCCc1ccc(F)cc1 [compound 76, 2-[3-(4-Fluorophenyl)-propylsulfanyl]-N-[(2-methoxyphenyl)-methyl]-pyridine-3-carboxylic acid amide]
Emax (KCNQ2/3 channels): 33%

Cc1ccnc(SCCCc2ccc(F)cc2)c1C(=O)NCc1cccs1 [compound 147]
Fluorimetry % efficacy (retigabine 50 μM = 100%) (KCNQ2/3 channels): 34%

O=C(NCc1cccs1)c1cccnc1CCCSc1ccccc1 [compound 23, 2-(3-Phenylsulfanyl-propyl)-N-(thiophen-2-yl-methyl)-pyridine-3-carboxylic acid amide]
EC50 (KCNQ2/3 channels): 3770 nM | Emax (KCNQ2/3 channels): 163%

O=C(NCC1CC2CCC1C2)c1cccnc1SCCCc1cc(F)cc(F)c1 (stereo not drawn) [compound 61, N-(5-Bicyclo[2.2.1]heptanyl-methyl)-2-[3-(3,5-difluoro-phenyl)-propylsulfanyl]-pyridine-3-carboxylic acid amide]
EC50 (KCNQ2/3 channels): 221 nM | Emax (KCNQ2/3 channels): 283%

CC(CSc1ccccc1)Sc1ncccc1C(=O)NCc1cccs1 (stereo not drawn) [compound 24, 2-[(1-Methyl-2-phenylsulfanyl-ethyl)sulfanyl]-N-(thiophen-2-yl-methyl)-pyridine-3-carboxylic acid amide]
EC50 (KCNQ2/3 channels): 11 nM | Emax (KCNQ2/3 channels): 122%

O=C(NCCc1ccccc1)c1cccnc1SCCCc1ccc(F)cc1 [compound 78, 2-[3-(4-Fluorophenyl)-propylsulfanyl]-N-phenethyl-pyridine-3-carboxylic acid amide]
EC50 (KCNQ2/3 channels): 319 nM | Emax (KCNQ2/3 channels): 53%

C[C@H](CCc1ccccc1)Sc1ncccc1C(=O)NCCC(C)(C)C [compound 153, N-(3,3-Dimethyl-butyl)-2-[[(1R)-1-methyl-3-phenyl-propyl]sulfanyl]-pyridine-3-carboxylic acid amide]
EC50 (KCNQ2/3 channels): 1250 nM | Emax (KCNQ2/3 channels): 155%

O=C(NCc1ncco1)c1cccnc1SCCCc1ccc(F)cc1 [compound 146, 2-[3-(4-Fluorophenyl)-propylsulfanyl]-N-(oxazol-2-yl-methyl)-pyridine-3-carboxylic acid amide]
EC50 (KCNQ2/3 channels): 2550 nM | Emax (KCNQ2/3 channels): 193%
